Experimental data from PMC6009881, “New sulfurated derivatives of cinnamic acids and rosmaricine as inhibitors of STAT3 and NF-κB transcription factors” (Journal of Enzyme Inhibition and Medicinal Chemistry, 2017).
Like-named read-outs stand apart in the source and are kept apart here.

What was measured:
STAT3 = conditions: in some settings; read-out: STAT3 inhibition IC50; cited from earlier work
STAT3-SH2 domain [1] = target: T1, STAT3-SH2 domain (Homo sapiens, UniProt P40763); assay: STAT AlphaScreen-based assay (STAT3); type: binding; conditions: for IC50 / inhibition at 30 µM: AlphaScreen assay; for IC50: read-out: STAT3 IC50 ±SD; for inhibition at 30 µM: read-out: STAT3 % inhibition ± SD at 30 μM
T1 sequence (P40763 whole entry, the tested form may be a part): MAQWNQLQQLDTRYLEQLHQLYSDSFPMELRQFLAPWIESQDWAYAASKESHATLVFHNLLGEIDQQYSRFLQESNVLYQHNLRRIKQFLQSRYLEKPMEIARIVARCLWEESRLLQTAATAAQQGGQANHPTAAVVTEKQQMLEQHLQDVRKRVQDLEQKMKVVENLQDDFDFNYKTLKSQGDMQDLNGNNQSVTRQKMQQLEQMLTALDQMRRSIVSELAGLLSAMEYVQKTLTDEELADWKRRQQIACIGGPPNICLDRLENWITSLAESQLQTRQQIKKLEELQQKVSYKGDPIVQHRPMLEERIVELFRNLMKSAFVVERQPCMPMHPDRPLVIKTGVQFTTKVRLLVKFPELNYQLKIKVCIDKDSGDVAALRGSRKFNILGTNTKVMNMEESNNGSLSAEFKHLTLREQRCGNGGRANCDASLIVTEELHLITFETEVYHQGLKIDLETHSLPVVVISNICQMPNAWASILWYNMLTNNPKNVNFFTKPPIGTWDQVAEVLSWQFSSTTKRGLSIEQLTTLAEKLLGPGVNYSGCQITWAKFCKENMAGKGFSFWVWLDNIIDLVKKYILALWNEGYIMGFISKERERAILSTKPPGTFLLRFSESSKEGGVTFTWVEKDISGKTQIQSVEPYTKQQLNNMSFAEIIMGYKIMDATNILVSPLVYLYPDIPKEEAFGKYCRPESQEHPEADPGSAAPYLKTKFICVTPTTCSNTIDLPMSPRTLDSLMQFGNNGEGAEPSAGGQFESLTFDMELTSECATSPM

HCT-116 cells = assay: MTT assay, cytotoxicity on HCT-116; type: cell-based, human; conditions: for IC50 at 48 h: human, HCT-116 cells; for IC50 at 48 h / IC50: MTT assay, NA = not active up to 100 μM, read-out: Cytotoxicity (HCT-116) IC50 ±SD, 48 h
Description: Following the same protocol used for previous cytotoxicity assays by N. Ferri[55], cells were seeded in 48-well plate (40.000 cells/well) and, after 24 h, they were incubated with different concentrations of our compounds for 48 h.
The determination of the conversion of MTT (3-(4,5-dimethyl-2-thiazolyl)-2,5-diphenyl-2H-tetrazolium bromide) to formazan was determined by using a commercially available kit (Millipore, Billerica, MA), according to the manufacturer’s instructions.

[2] = system: NF-κB promoter activity in HCT-116 cells; assay: Luciferase reported NF-κB promoter activity assay; type: cell-based; conditions: Homo sapiens, 2 h pre-treatment, TNF-α 10 ng/ml, NA = not active up to 100 μM, read-out: NF-κB promoter assay (HCT-116) IC50 ±SD
Description: To measure the NF-κB promoter activity, HCT-116 cells were seeded in 100 mm dish and transiently transfected with 6 μg of DNA (NF-κB plasmid, containing luciferase reporter gene[57] with turbofect reagent (Carlo Erba Reagents). After 24 h, cells were seeded in 48-well plates (40.000 cells per well). On the next day, cells were incubated with our compounds for 2 h (pre-treatment) and then TNF-α was added in every well at (10 ng/ml). After 5–6 h, luciferase activity was measured by using Neolite reagent (PerkinElmer Life Sciences, Waltham, MA) according to the manufacturer’s instructions.

[3] = system: STAT3 reporter activity in HeLa cells; assay: STAT3 luciferase reporter gene assay; type: cell-based; conditions: Homo sapiens, 2 h pretreatment, oncostatin M 10 ng/ml 4 h, read-out: STAT3 reporter assay (HeLa) IC50 ±SD
Description: STAT3 reporter HeLa stable cell lines (Signosis Inc, Santa Clara, CA) were incubated in a 96-well microplate for 24 h. Cells were pretreated with test compounds for 2 h, and 10 ng/ml (w/v) of oncostatin M were applied and incubated for 4 h. Cells were washed with medium not supplemented with phenol red, and Steady-Glo® reagent (Promega, Madison, WI) was applied. After 15 min incubation, the signals were detected by ARVO Light 1420 (PerkinElmer Life Sciences, Waltham, MA). The relative signal intensity was calculated in each well as the ratio for the mean signal of vehicle.

SH2-domain of STAT1 = target: T2, SH2-domain of STAT1 (Homo sapiens, UniProt P42224); assay: STAT AlphaScreen-based assay (STAT1 selectivity); type: binding; conditions: for inhibition at 30 µM: read-out: STAT1 % inhibition ± SD at 30 μM, 30 μM; for IC50: read-out: STAT1 IC50 ±SD
T2 sequence (P42224 1-750): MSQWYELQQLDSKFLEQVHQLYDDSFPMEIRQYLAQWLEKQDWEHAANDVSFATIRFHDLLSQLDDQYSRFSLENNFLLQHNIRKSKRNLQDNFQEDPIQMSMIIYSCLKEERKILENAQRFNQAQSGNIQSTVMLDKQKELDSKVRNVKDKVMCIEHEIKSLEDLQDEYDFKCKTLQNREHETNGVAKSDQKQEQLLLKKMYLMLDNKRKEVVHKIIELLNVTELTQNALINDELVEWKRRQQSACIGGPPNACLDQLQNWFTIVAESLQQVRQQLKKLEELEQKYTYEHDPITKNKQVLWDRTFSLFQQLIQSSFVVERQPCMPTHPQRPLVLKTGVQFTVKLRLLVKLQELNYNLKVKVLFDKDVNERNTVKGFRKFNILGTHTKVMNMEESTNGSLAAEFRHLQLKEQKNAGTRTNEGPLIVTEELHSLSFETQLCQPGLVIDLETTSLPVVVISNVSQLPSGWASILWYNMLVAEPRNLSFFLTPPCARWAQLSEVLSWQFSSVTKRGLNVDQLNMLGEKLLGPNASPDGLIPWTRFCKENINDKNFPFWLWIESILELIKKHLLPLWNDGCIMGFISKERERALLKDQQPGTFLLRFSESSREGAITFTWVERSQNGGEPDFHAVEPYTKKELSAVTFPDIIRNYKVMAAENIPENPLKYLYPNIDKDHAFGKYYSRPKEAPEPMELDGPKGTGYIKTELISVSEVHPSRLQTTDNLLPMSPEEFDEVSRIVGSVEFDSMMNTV
Description: STAT3 inhibitory activity of the described compounds was tested by the AlphaScreen-based assay to evaluate the potential inhibition of the interaction between STAT3-SH2 domain and pTyr-containing peptides according to the previously reported procedure. For the most interesting compounds, selectivity tests versus STAT1 were performed.
The new sulfurated-drug hybrids, together with their parent compounds have been submitted to the AlphaScreen-based assay, to investigate their ability to bind STAT3 directly, through the evaluation of the inhibition of the binding of SH2-containing proteins to their correspondent phosphopeptides, the physiological ligands. […] Since AlphaScreen is a cell-free assay, not always there is a correspondence between the potency of STAT3 inhibition and cytotoxicity, probably due to not optimal physicochemical properties of the tested compounds, such as solubility and chemical stability in the culture medium and cell permeation.

[4] = system: lymphocytic leukemia P388; parameters: method as in PMID 8003178; conditions: injected i.p. in mice, 24 h after the tumor implants; data from National Cancer Institute; cited from earlier work
[5] = system: MCF-7 (hormone sensitive breast cancer) cells; assay: Cytotoxicity against MCF-7 cells; type: cell-based; conditions: in comparison to HCT-116
[6] = system: human smooth muscle cells (hSMC); assay: Cytotoxicity versus normal human smooth muscle cells; type: cell-based
[7] = system: different tumoral cell lines; parameters: method as in PMID 18266964, PMID 22212895; conditions: cited from earlier work
[8] = system: PC3 subcutaneous xenografts; parameters: method as in PMID 18266964; conditions: in vivo; cited from earlier work
STAT3-SH2 domain [9] = target: T1, STAT3-SH2 domain; parameters: method as in PMID 28097912; conditions: maximum tested concentration 30 μM; read-out: STAT3-SH2 domain binding IC50 (AlphaScreen), previously described hybrids; cited from earlier work

SMILES | IC50 (STAT3) [µM] | IC50 (STAT3-SH2 domain [1]) [µM] | IC50 at 48 h (HCT-116 cells) [µM] | IC50 [2] [µM] | IC50 [3] [µM] | melting point | inhibition at 30 µM (SH2-domain of STAT1) [%] | IC50 (SH2-domain of STAT1) [µM] | inhibition at 30 µM (STAT3-SH2 domain [1]) [%] | IC50 (HCT-116 cells) [µM] | activity against lymphocytic leukemia P388 [4] | fold increase of inhibitory potency on STAT3 (STAT3-SH2 domain [1]; in comparison to rosmaricine) [fold] | fold increase of antiproliferative activity (HCT-116 cells; HCT-116, in comparison to rosmaricine) [fold] | cytotoxicity against MCF-7 cells [5] | selectivity index (hSMC versus HCT-116) [6] | IC50 ([6]; Homo sapiens, HSMC) [µM] | in vitro antiproliferative activity [7] | growth of PC3 in subcutaneous xenografts [8] | IC50 (STAT3-SH2 domain [9]) [µM]
O=C(O)/C=C/c1ccc(O)c(O)c1 [Compound 19, caffeic acid, reference compound] | 70 to 100 | > 30 | – | – | – | – | – | – | – | – | – | – | – | – | – | – | – | – | –
CS(=O)(=O)SCCOC(=O)/C=C/c1ccc(O)c(O)c1 [Compound 21, (E)-2-(methylsulfonylthio)ethyl 3-(3,4-dihydroxyphenyl)acrylate] | – | 0.8 ± 0.2 | 123 ± 17.3 | 128 ± 8.9 | 60.6 ± 2.8 | 133.1 to 134.8 °C | 85.7 ± 4.3 | 17 ± 1.2 | 100.1 ± 0.1 | – | – | – | – | – | – | – | – | – | –
C=CCSSCCOC(=O)/C=C/c1ccc(O)c(O)c1 [Compound 23, (E)-2-(allyldisulfanyl)ethyl 3-(3,4-dihydroxyphenyl)acrylate] | – | 5.5 ± 0.2 | 73 ± 8 | 163 ± 11.1 | 94.4 ± 26.1 | – | 37.7 ± 7.5 | > 30 | 70 ± 1.7 | – | – | – | – | – | – | – | – | – | –
O=C(/C=C/c1ccc(O)c(O)c1)Oc1ccc(-c2cc(=S)ss2)cc1 [Compound 24, (E)-4-(3-thioxo-3H-1,2-dithiol-5-yl)phenyl 3-(3,4-dihydroxyphenyl)acrylate] | – | 13.2 ± 0.9 | 46.7 | 40.6 ± 3 | 40 ± 1.5 | 199.5 to 201.5 °C | 21.5 ± 1.8 | > 30 | 66.7 ± 0.5 | 46.7 ± 4.1 | – | – | – | – | – | – | – | – | –
CC(C)c1cc2c(c(O)c1O)C13CCCC(C)(C)C1C(OC3=O)C2N (centres unmarked) [Compound 30, rosmaricine] | – | 1.9 ± 0.1 | 65 | 43.4 ± 6.9 | 42.4 ± 2.4 | 198.2 to 202.5 °C | 91.8 | 10 ± 0.6 | 99.7 | 65.2 ± 2.3 | inactive or endowed with borderline activity | – | – | – | – | – | – | – | –
CC(C)c1cc2c(c(O)c1O)C13CCCC(C)(C)C1C(OC3=O)C2NC(=O)CCCCSS(C)(=O)=O (centres unmarked) [Compound 31, N-[5-(methylsulfonyl)thiopentanoyl]rosmaricine] | – | 0.2 | 73.8 ± 0.9 | 53.3 ± 10.9 | > 100 | 121.1 to 124.2 °C (dec.) | 99.9 ± 0.3 | 2.8 ± 0.1 | 100.1 ± 0.1 | – | – | 10 | – | – | – | – | – | – | –
C=CCSSCCC(=O)NC1c2cc(C(C)C)c(O)c(O)c2C23CCCC(C)(C)C2C1OC3=O (centres unmarked) [Compound 32, N-[3-(allyldisulfanyl)propanoyl]rosmaricine] | – | 2.3 ± 0.4 | 3.5 ± 2.8 | 13 ± 0.7 | 37 ± 0.8 | 206.9 to 209.2 °C | 23.9 ± 0.4 | > 30 | 99.5 | – | – | – | 19 | confirmed, even at lower level | 6 | 21.2 | – | – | –
CC(C)c1cc2c(c(O)c1O)C13CCCC(C)(C)C1C(OC3=O)C2NC(=O)c1ccc(-c2cssc2=S)cc1 (centres unmarked) [Compound 33, N-[4-(3-thioxo-3H-1,2-dithiol-4-yl)benzoyl]rosmaricine] | – | 2.9 ± 0.2 | 65.4 ± 3.9 | 73 ± 13.2 | > 100 | 243.2 to 249.7 °C | 58.8 ± 5.9 | 19.7 ± 4 | 94.5 ± 0.4 | – | – | – | – | – | – | – | – | – | –
CCCC(CCC)C(=O)OCCSS(C)(=O)=O [a, 2-((methylsulfonyl)thio)ethyl 2-propylpentanoate] | – | – | – | – | – | – | – | – | – | – | – | – | – | – | – | – | good antiproliferative activity in micromolar concentrations | inhibited the growth of PC3 in subcutaneous xenografts | 0.7
